Test results from patent publication US20260184710A1, “CASITAS B-LINEAGE LYMPHOMA PROTOONCOGENE B (CBL-B) DEGRADING COMPOUNDS AND ASSOCIATED METHODS OF USE” (Arvinas Operations, Inc., priority 2022, published 2026).

Target: T1, Cbl-b (Homo sapiens, UniProt Q13191)
T1 construct: Cbl-b-HiBit KI Jurkat Cells were purchased from Promega; host or cells: Cbl-b-HiBiT knock-in Jurkat cells
Test: Cbl-b Degradation Method B (Nano-Glo HiBiT lytic detection)
Format: cell-based
Conditions: Cbl-b-HiBit KI Jurkat Cells, incubated at least 6-24 hours; for DC50: half maximal degradation, read-out: Cbl-b Degredation Method B IC50; for Dmax: maximum degradation observed, read-out: Cbl-b Degredation Method B Dmax (%)
How it was run: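 An 11-point, 3-fold compound dilution was applied for 6-24 hours to Jurkat cells carrying HiBiT-tagged endogenous Cbl-b. Lytic HiBiT luminescence quantified residual protein. Outputs are DC50 and Dmax relative to DMSO control.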

T1 sequence (Q13191 whole entry): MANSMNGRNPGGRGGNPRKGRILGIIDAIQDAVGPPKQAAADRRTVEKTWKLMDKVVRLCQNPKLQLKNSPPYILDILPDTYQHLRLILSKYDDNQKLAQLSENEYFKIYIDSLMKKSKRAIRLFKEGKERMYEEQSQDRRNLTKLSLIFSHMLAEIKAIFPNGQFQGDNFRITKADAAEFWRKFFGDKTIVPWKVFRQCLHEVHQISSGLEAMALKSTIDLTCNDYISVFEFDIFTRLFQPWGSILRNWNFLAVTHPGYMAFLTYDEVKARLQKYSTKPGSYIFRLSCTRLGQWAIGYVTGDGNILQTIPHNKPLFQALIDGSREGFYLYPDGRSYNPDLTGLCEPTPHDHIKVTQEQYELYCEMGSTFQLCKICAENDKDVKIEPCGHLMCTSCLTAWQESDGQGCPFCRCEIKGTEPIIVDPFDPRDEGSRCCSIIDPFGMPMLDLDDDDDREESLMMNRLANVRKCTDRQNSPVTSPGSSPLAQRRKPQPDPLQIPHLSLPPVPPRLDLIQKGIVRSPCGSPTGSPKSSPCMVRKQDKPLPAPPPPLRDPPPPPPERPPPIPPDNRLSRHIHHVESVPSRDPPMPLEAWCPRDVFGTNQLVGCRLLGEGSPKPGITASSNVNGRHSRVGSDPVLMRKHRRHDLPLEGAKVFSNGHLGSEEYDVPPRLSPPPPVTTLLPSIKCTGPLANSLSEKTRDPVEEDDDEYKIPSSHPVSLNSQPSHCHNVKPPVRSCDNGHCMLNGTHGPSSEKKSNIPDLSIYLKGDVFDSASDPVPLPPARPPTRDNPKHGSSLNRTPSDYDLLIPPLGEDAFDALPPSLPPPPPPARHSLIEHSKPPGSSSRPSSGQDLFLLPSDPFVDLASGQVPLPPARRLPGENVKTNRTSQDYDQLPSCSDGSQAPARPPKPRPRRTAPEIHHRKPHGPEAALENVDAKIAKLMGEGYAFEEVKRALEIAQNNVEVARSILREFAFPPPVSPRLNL

Row | DC50 | Dmax | Compound
1 | > 500 nM |  | C[C@@H]1c2nc(N3CCC(O[C@H]4CC[C@H](CN5CCN(Cc6cc7c(c(C(F)(F)F)c6)CN(c6cccc(C8(Cc9nncn9C)CC(C#N)C8)c6)C7=O)C6(CC6)C5)CC4)CC3)ccc2C(=O)N1C1CCC(=O)NC1=O (single isomer, unassigned) [Example 305, (1r***,3r***)-3-[(4-methyl-4H-1,2,4-triazol-3-yl)methyl]-3-(3-{1-oxo-6-[(7-{[(1r**,4r**)-4-({1-[(7R*)-6-(2,6-dioxopiperidin-3-yl)-7-methyl-5-oxo-5H,6H,7H-pyrrolo[3,4-b]pyridin-2-yl]piperidin-4-yl}oxy)cyclohexyl]methyl}-4,7-diazaspiro[2.5]octan-4-yl)methyl]-4-(trifluoromethyl)-2,3-dihydro-1H-isoindol-2-yl}phenyl)cyclobutane-1-carbonitrile]
2 | < 5 nM | > 70% | CC1c2nc(N3CCC(OC4CCC(CN5[C@H](C)CN(Cc6cc7c(c(C(F)(F)F)c6)CN(c6cccc(C8(Cc9nncn9C)COC8)c6)C7=O)C[C@@H]5C)CC4)CC3)ccc2C(=O)N1C1CCC(=O)NC1=O (stereo partly drawn) [Example 243, 3-[7-methyl-5-oxo-2-(4-{[(1rs,4rs)-4-{[(2R,6S)-2,6-dimethyl-4-{[2-(3-{3-[(4-methyl-4H-1,2,4-triazol-3-yl)methyl]oxetan-3-yl}phenyl)-3-oxo-7-(trifluoromethyl)-2,3-dihydro-1H-isoindol-5-yl]methyl}piperazin-1-yl]methyl}cyclohexyl]oxy}piperidin-1-yl)-5H,6H,7H-pyrrolo[3,4-b]pyridin-6-yl]piperidine-2,6-dione]
3 | > 500 nM |  | Cn1cnnc1C[C@]1(c2cccc(N3Cc4c(cc(CN5CCN(C[C@H]6CC[C@H](OC7CCN(c8ccnc(C(=O)NC9CCC(=O)NC9=O)c8)CC7)CC6)CC5)cc4C(F)(F)F)C3=O)c2)C[C@H](C#N)C1 (stereo partly shown) [Example 200, N-(2,6-dioxopiperidin-3-yl)-4-(4-{[(1r,4r)-4-({4-[(3-oxo-2-{3-[(1r,3r)-3-cyano-1-[(4-methyl-4H-1,2,4-triazol-3-yl)methyl]cyclobutyl]phenyl}-7-(trifluoromethyl)-2,3-dihydro-1H-isoindol-5-yl)methyl]piperazin-1-yl}methyl)cyclohexyl]oxy}piperidin-1-yl)pyridine-2-carboxamide]
4 | > 500 nM |  | Cn1cnnc1CC1(c2cccc(-n3cc4c(C(F)(F)F)cc(CN5CCC[C@H](CN6CCC(CN7CCN(c8ccc9c(c8F)CN(C8CCC(=O)NC8=O)C9=O)CC7)CC6)C5)cc4n3)c2)COC1 (stereo partly drawn) [Example 256, 3-(4-fluoro-5-{4-[(1-{[(3R)-1-{[2-(3-{3-[(4-methyl-4H-1,2,4-triazol-3-yl)methyl]oxetan-3-yl}phenyl)-4-(trifluoromethyl)-2H-indazol-6-yl]methyl}piperidin-3-yl]methyl}piperidin-4-yl)methyl]piperazin-1-yl}-1-oxo-2,3-dihydro-1H-isoindol-2-yl)piperidine-2,6-dione]
5 | > 500 nM |  | Cn1cnnc1CC1(c2cccc(N3Cc4c(cc(CN5CC6(C5)CN(CC5CCN(c7ccc8c(c7)C(=O)N(C7CCC(=O)NC7=O)C8=O)CC5)C6)cc4C(F)(F)F)C3=O)c2)COC1 (stereo not shown) [Example 68, 2-(2,6-dioxopiperidin-3-yl)-5-{4-[(6-{[2-(3-{3-[(4-methyl-4H-1,2,4-triazol-3-yl)methyl]oxetan-3-yl}phenyl)-3-oxo-7-(trifluoromethyl)-2,3-dihydro-1H-isoindol-5-yl]methyl}-2,6-diazaspiro[3.3]heptan-2-yl)methyl]piperidin-1-yl}-2,3-dihydro-1H-isoindole-1,3-dione]
6 | > 500 nM |  | Cn1cnnc1CC1(c2cccc(N3Cc4c(cc(CN5CCC(CN6CCC7(CC6)CN(c6cccc8c6CN(C6CCC(=O)NC6=O)C8=O)C7)CC5)cc4C(F)(F)F)C3=O)c2)COC1 (stereo not shown) [Example 65, 3-(4-{7-[(1-{[2-(3-{3-[(4-methyl-4H-1,2,4-triazol-3-yl)methyl]oxetan-3-yl}phenyl)-3-oxo-7-(trifluoromethyl)-2,3-dihydro-1H-isoindol-5-yl]methyl}piperidin-4-yl)methyl]-2,7-diazaspiro[3.5]nonan-2-yl}-1-oxo-2,3-dihydro-1H-isoindol-2-yl)piperidine-2,6-dione]
7 | < 5 nM | > 70% | Cc1cc(N2CCC(O[C@H]3CC[C@@H](CN4CCN(C[C@H]5CCCN(Cc6cc7c(c(C(F)(F)F)c6)CN(c6cccc(C8(Cc9nncn9C)COC8)c6)C7=O)C5)C(C)(C)C4)CC3)CC2)c(F)c2c1C(=O)N(C1CCC(=O)NC1=O)C2 (stereo partly drawn) [Example 269, 3-[4-fluoro-7-methyl-1-oxo-5-(4-{[(1r,4r)-4-[(3,3-dimethyl-4-{[(3S)-1-{[2-(3-{3-[(4-methyl-4H-1,2,4-triazol-3-yl)methyl]oxetan-3-yl}phenyl)-3-oxo-7-(trifluoromethyl)-2,3-dihydro-1H-isoindol-5-yl]methyl}piperidin-3-yl]methyl}piperazin-1-yl)methyl]cyclohexyl]oxy}piperidin-1-yl)-2,3-dihydro-1H-isoindol-2-yl]piperidine-2,6-dione]
8 | 5 to 50 nM | < 35% | Cn1cnnc1C[C@]1(c2cccc(N3Cc4c(cc(CN5CCN(C[C@H]6CC[C@H](OC7CCN(c8cccc(C(=O)NC9CCC(=O)NC9=O)c8)CC7)CC6)CC5)cc4C(F)(F)F)C3=O)c2)C[C@H](C#N)C1 (stereo partly shown) [Example 198, N-(2,6-dioxopiperidin-3-yl)-3-(4-{[(1r,4r)-4-({4-[(3-oxo-2-{3-[(1r,3r)-3-cyano-1-[(4-methyl-4H-1,2,4-triazol-3-yl)methyl]cyclobutyl]phenyl}-7-(trifluoromethyl)-2,3-dihydro-1H-isoindol-5-yl)methyl]piperazin-1-yl}methyl)cyclohexyl]oxy}piperidin-1-yl)benzamide]
9 | > 500 nM |  | CC1c2nc(N3CCC(O[C@H]4CC[C@H](CN5CCN(Cc6cc7c(c(C(F)(F)F)c6)CN(c6cccc(C8(Cc9nncn9C)CCOCC8)c6)C7=O)CC5)CC4)CC3)ccc2C(=O)N1C1CCC(=O)NC1=O (mixture of isomers) [Example 233, rac-3-[7-methyl-5-oxo-2-(4-{[(1r,4r)-4-[(4-{[2-(3-{4-[(4-methyl-4H-1,2,4-triazol-3-yl)methyl]oxan-4-yl}phenyl)-3-oxo-7-(trifluoromethyl)-2,3-dihydro-1H-isoindol-5-yl]methyl}piperazin-1-yl)methyl]cyclohexyl]oxy}piperidin-1-yl)-5H,6H,7H-pyrrolo[3,4-b]pyridin-6-yl]piperidine-2,6-dione]
10 | < 5 nM | 35 to 70% | Cc1cc(N2CCC(CN3CCC4(CC3)CN(c3cc5c(c(C(F)(F)F)c3)CN(c3cccc(C6(Cc7nncn7C)CC6)c3)C5=O)C4)CC2)c(F)c2c1C(=O)N(C1CCC(=O)NC1=O)C2 (stereo not shown) [Example 191, 3-{4-fluoro-7-methyl-5-[4-({2-[2-(3-{1-[(4-methyl-4H-1,2,4-triazol-3-yl)methyl]cyclopropyl}phenyl)-3-oxo-7-(trifluoromethyl)-2,3-dihydro-1H-isoindol-5-yl]-2,7-diazaspiro[3.5]nonan-7-yl}methyl)piperidin-1-yl]-1-oxo-2,3-dihydro-1H-isoindol-2-yl}piperidine-2,6-dione]
11 | > 500 nM |  | Cn1cnnc1CC1(c2cccc(-n3cc4c(C(F)(F)F)cc(CN5CCC[C@H](CN6CCC(OC7CCN(c8ccc9c(c8F)CN(C8CCC(=O)NC8=O)C9=O)CC7)CC6)C5)cc4n3)c2)COC1 (stereo partly drawn) [Example 259, 3-(4-fluoro-5-{4-[(1-{[(3R)-1-{[2-(3-{3-[(4-methyl-4H-1,2,4-triazol-3-yl)methyl]oxetan-3-yl}phenyl)-4-(trifluoromethyl)-2H-indazol-6-yl]methyl}piperidin-3-yl]methyl}piperidin-4-yl)oxy]piperidin-1-yl}-1-oxo-2,3-dihydro-1H-isoindol-2-yl)piperidine-2,6-dione]
12 | > 500 nM |  | Cn1cnnc1C[C@]1(c2cccc(N3Cc4c(cc(CN5CCN(C[C@H]6CC[C@H](OC7CCN(c8ccc(C9CCC(=O)NC9=O)c(F)c8)CC7)CC6)CC5)cc4C(F)(F)F)C3=O)c2)C[C@H](C#N)C1 (stereo partly shown) [Example 201, (1r,3r)-3-[(4-methyl-4H-1,2,4-triazol-3-yl)methyl]-3-(3-{1-oxo-6-[(4-{[(1r,4r)-4-({1-[4-(2,6-dioxopiperidin-3-yl)-3-fluorophenyl]piperidin-4-yl}oxy)cyclohexyl]methyl}piperazin-1-yl)methyl]-4-(trifluoromethyl)-2,3-dihydro-1H-isoindol-2-yl}phenyl)cyclobutane-1-carbonitrile]
13 | > 500 nM |  | Cn1cnnc1CC1(c2cccc(N3Cc4c(cc(CN5CCC6(CC5)CN(c5cccc7c5CN(C5CCC(=O)NC5=O)C7=O)C6)cc4C(F)(F)F)C3=O)c2)COC1 (stereo not shown) [Example 42, 3-[4-(7-{[2-(3-{3-[(4-methyl-4H-1,2,4-triazol-3-yl)methyl]oxetan-3-yl}phenyl)-3-oxo-7-(trifluoromethyl)-2,3-dihydro-1H-isoindol-5-yl]methyl}-2,7-diazaspiro[3.5]nonan-2-yl)-1-oxo-2,3-dihydro-1H-isoindol-2-yl]piperidine-2,6-dione]
14 | > 500 nM |  | Cn1cnnc1CC1(c2cccc(N3Cc4c(cc(CN5CCN(CC6CCN(c7ccc(N8CCC(=O)NC8=O)c(F)c7)CC6)CC5)cc4C(F)(F)F)C3=O)c2)COC1 [Example 57, 1-(2-fluoro-4-{4-[(4-{[2-(3-{3-[(4-methyl-4H-1,2,4-triazol-3-yl)methyl]oxetan-3-yl}phenyl)-3-oxo-7-(trifluoromethyl)-2,3-dihydro-1H-isoindol-5-yl]methyl}piperazin-1-yl)methyl]piperidin-1-yl}phenyl)-1,3-diazinane-2,4-dione]

Row | Compound | DC50 | Dmax
15 | Cn1cnnc1CC1(c2cccc(N3Cc4c(cc(CNC5CC(Oc6ccc7c(c6)C(=O)N(C6CCC(=O)NC6=O)C7=O)C5)cc4C(F)(F)F)C3=O)c2)COC1 (stereo not shown) [Example 37, 2-(2,6-dioxopiperidin-3-yl)-5-[3-({[2-(3-{3-[(4-methyl-4H-1,2,4-triazol-3-yl)methyl]oxetan-3-yl}phenyl)-3-oxo-7-(trifluoromethyl)-2,3-dihydro-1H-isoindol-5-yl]methyl}amino)cyclobutoxy]-2,3-dihydro-1H-isoindole-1,3-dione] | > 500 nM | 
